Results: paper PMC6960228, “Ethoxysanguinarine, a Novel Direct Activator of AMP-Activated Protein Kinase, Induces Autophagy and Exhibits Therapeutic Potential in Breast Cancer Cells” (Frontiers in Pharmacology, 2020)

Key:
[1] = system: T47D; test: MTT cytotoxicity assay; assay type: cell-based; settings: Homo sapiens, 24 h, means ± SD of quadruplicate determinations
Method: Cells were seeded into 96-well plate and pre-cultured for 24 h, then treated with Eth for 24. Cell cytotoxicity was determined by MTT assay. The absorbance was measured at 490 nm by automated microplated reader (BioTek Instruments, Inc., Winooski, VT, USA), and the cell death rate was calculated as followed: inhibition rate (%) = (average A490 of the control group − average A490 of the experimental group)/(average A490 of the control group − average A490 of the blank group) × 100%. Cell viability was estimated by trypan blue dye exclusion.

[2] = system: AMPK; test: AMPK activity assay (CycLex kit) in treated cells; assay type: cell-based, human; settings: MCF-7, MDA-MB-231, and MDA-MB-436 cells treated with Eth
Method: AMPK kinase activity was assay was performed by AMPK kinase activity kit which was purchased from CycLex Co., Ltd. (Cat#CY-1182). Absorbance was measured at 450 nm.
Next we determined whether Eth modulates the activity of the AMPK kinase. For this purpose, MCF-7, MDA-MB-231, and MDA-MB-436 cells were treated with Eth and incubated for different time periods (1, 6, 12, and 24 h).
Figure 4 Eth is a direct activator of AMPK. (A): MCF-7, MDA-MB-231, or MDA-MB-436 cells were treated with increasing concentrations of Eth for 24 h, and AMPK activity assay was performed. (B): The binding mode of Eth docked into AMPK. (C): The binding mode of Eth docked into AMPK. α subunit is green, β subunit is cyan, γ subunit is magenta and Eth is gold. (D): Details of the binding site of Eth in the ADaM site of AMPK. The main residues involved in drug interactions are shown as labeled green sticks. α subunit is green, β subunit is cyan. The pSER-108 was shown in stick and colored by gold. (E) The interaction pattern of Eth with the residues. (F): The 2D representation of the AMPK crystal structure in complex with Eth. (G): Chemical structure of Eth intermediate and Biotin-labeled Eth. (H): Viability of MCF-7, MDA-MB-231 or MDA-MB-436 cells exposed to Biotin-Eth as determined by MTT assay. […]

CCOC1c2c(ccc3c2OCO3)-c2ccc3cc4c(cc3c2N1C)OCO4 (centres unmarked) [Eth, Ethoxysanguinarine]
IC50 [1]: 9.15 ± 1.83 µM | AMPK activity [2]: robust increase in AMPK activity
